The values below come from patent US11344620B2, “Combination therapies” (Novartis AG, priority 2014, dated 2022).

Test [1] relates to PD-L1 (CD274) mRNA in H3122 cells. Kind of test: TaqMan RT PCR of PD-L1 mRNA in H3122 cells in vitro. In kind it is cell-based, human. As to conditions: H3122 (NSCLC with ALK translocation) in vitro, FIG. 3. How it is done: (§1) TaqMan RT PCR assays were developed to detect changes of expression levels of PD-L1 (CD274) in cell lines and xenograft tumors. mRNA was isolated from frozen cell pellets or tumor fragments using the Qiagen RNeasy Mini kit. Isolated RNA was frozen at −80° C. RNA quality was checked and RNA was quantified using a 2100 Agilent Bioanalyzer following the protocol for the Agilent RNA 6000 Nano Kit. cDNA was prepared using a High Capacity RNA- to cDNA Kit (Applied Biosystems).
(§2) Real-time PCR reactions were carried out in 20 μl total volume, including 10 μl of Universal PCR master mix (Applied Biosystems), 1 μl of human PD-L1 (CD274) probe/primer set (Applied Biosystems), and 8 μl of cDNA. Each sample was run in triplicate. The amount of cDNA produced from 25-50 ng of RNA in the reverse transcription reaction was used in each PCR reaction. Due to difference in mRNA levels between PD-L1 and GAPDH, the two real-time PCR reactions were done in separate tubes using same amount of cDNA. The real-time PCR reaction was run on the C1000 Thermal Cycle (BioRad) with the cycle program as follows: a 10 minute incubation at 95° C. followed by 40 cycles of 95° C. for 15 seconds and 60° C. for 1 minute. After the reaction was complete, the PD-L1 average Ct was normalized relative to each Ct value from the GAPDH reference reaction. Each normalized logarithmic value was then converted into a linear value.
A general note: Quantitative PCR measures a nucleic acid by following its amplification.

Test [2] concerns PD-L1 (CD274) on tumor cells. Kind of test: Effects of targeted agents on PD-L1 modulation (real time PCR and flow cytometry), summary. It is filed as cell-based, human. The source says:
This example evaluates the effects of selected therapeutic agents (e.g., INC280, MEK162, LGX818 and LDK378) on PD-L1 (CD274) modulation. Selected therapeutic agents were examined by real time PCR and flow cytometry on PD-L1 levels.

Test [3] deals with PD-L1 (CD274) mRNA in LOXIMV1 tumors. Kind of test: TaqMan RT PCR of PD-L1 mRNA in LOXIMV1 tumor xenograft model. In kind it is in vivo, human. As to conditions: tumor xenograft model bearing LOXIMV1 (BRAF mutant melanoma), FIG. 4. How it is done:
as §1, §2

In test [4] the test system is EGFR mutant (L858R, ex19del and T790M) cancer models. The note with it: in vitro and in vivo; cited from earlier work.
In a further test the target is WT EGFR (Homo sapiens, UniProt P00533). The note with it: at clinically relevant efficacious concentrations; cited from earlier work.
The test system of test [5] is PD-L1 (CD274) surface expression in EBC-1 cells. Kind of test: Flow cytometry of PD-L1 surface expression in EBC-1 cells in vitro. In kind it is cell-based, human. As to conditions: EBC-1 cells (NSCLC with cMET amplification), FIG. 1. The procedure:
PD-L1 (CD274) expression was analyzed in cancer cell lines treated with INC280. Cells were obtained from ATCC and cultured in vitro following ATCC directions. The cell lines used were previously characterized by the Cancer Cell Line Encyclopedia Project (http://www.broadinstitute.org/ccle/home). Cells plated in six-well culture plates were treated with the INC280 at different concentrations (10 nM, 100 nM, and 1000 nM) for 24, 48 and 72 hours. Equal amount of vehicle (DMSO) was used as a control. Cells were washed with PBS and then harvested using a cell scraper. For each reaction, 0.5-1×10^6 cells were stained with 20 μL of anti-human monoclonal PD-L1-PE antibody, clone M1H1 (BD) for 30-60 minutes at 4° C. Cells were washed twice and data was acquired using a Canto II with FACSDiva software (BD Bioscience). Data analysis was performed using FlowJo software (Tree Star). Mean fluorescence intensity (MFI) was determined by gating on single cells. Unstained cells were used as a gating control.
(In general: Flow cytometry measures light scatter and fluorescence of single cells or particles in a stream.)

The subject of test [6] is PD-L1 (CD274) mRNA in Hs.746.T tumor xenograft. Kind of test: TaqMan RT PCR of PD-L1 mRNA in Hs.746.T tumor xenograft. As to conditions: Hs.746.T tumor (gastric cancer, cMET amplification & mutation) xenograft, FIG. 2. It is filed as in vivo, human. How it is done: as §2, with “TaqMan RT PCR assays were developed to detect changes of expression levels of PD-L1 (CD274) in cell lines and xenograft tumors. mRNA was isolated from frozen cell pellets or tumor fragments using the Qiagen RNeasy Mini kit. Isolated RNA was frozen at −80° C. RNA quality was checked and RNA was quantified using a 2100 Agilent Bioanalyzer following the protocol for the Agilent RNA 6000 Nano Kit. cDNA was prepared using a High Capacity RNA- to cDNA Kit (Applied Biosystems). Real-time” for “Real-time”

Test [7] relates to PD-L1 (CD274) mRNA in HEYA8 tumors. Kind of test: TaqMan RT PCR of PD-L1 mRNA in HEYA8 tumor xenograft model. It is filed as in vivo, human. As to conditions: tumor xenograft model bearing HEYA8 (KRAS mutant ovarian cancer), FIG. 5. How it is done: as §1, §2

Chain of WT EGFR (P00533 25-1210): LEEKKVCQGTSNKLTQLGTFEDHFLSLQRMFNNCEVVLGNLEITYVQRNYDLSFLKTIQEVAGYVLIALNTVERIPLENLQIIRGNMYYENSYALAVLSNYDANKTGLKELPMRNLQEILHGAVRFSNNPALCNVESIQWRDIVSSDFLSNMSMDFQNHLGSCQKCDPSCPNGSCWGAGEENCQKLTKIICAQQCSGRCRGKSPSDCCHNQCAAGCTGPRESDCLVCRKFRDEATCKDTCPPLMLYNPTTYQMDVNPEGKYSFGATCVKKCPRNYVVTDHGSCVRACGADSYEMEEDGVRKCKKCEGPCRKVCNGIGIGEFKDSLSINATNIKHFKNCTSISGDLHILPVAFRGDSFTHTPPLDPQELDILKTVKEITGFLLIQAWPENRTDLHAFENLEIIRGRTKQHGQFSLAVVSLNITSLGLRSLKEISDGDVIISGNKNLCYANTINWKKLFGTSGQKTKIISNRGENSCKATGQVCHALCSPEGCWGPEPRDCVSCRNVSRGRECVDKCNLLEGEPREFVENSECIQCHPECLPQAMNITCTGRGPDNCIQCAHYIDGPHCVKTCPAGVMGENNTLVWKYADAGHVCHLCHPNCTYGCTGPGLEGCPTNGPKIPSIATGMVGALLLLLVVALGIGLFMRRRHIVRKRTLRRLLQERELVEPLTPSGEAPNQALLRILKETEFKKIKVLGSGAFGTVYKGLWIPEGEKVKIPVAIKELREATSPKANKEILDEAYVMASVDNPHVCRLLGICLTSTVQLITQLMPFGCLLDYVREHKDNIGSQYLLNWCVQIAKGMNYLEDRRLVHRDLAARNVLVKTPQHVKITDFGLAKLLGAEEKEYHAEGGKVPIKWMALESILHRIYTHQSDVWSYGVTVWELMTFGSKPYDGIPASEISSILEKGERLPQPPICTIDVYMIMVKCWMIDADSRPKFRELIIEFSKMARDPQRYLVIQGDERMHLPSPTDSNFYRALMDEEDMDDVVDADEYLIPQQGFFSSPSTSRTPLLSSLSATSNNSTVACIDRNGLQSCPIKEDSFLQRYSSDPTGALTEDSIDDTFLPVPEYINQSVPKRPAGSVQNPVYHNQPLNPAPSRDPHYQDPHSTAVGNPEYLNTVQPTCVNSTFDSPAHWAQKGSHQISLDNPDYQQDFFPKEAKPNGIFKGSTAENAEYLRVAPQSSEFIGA

Take `Cc1cc(Nc2ncc(Cl)c(Nc3ccccc3S(=O)(=O)C(C)C)n2)c(OC(C)C)cc1C1CCNCC1` [LDK378, 5-chloro-N2-(2-isopropoxy-5-methyl-4-(piperidin-4-yl)-phenyl)-N4-[2-(propane-2-sulfonyl)-phenyl]-pyrimidine-2,4-diamine, reference compound]: the “PD-L1 mRNA” value in test [1] is on record as “Inhibition”. Besides, the “inhibition of PD-L1 on tumor cells” value in test [2] is given as “Significant inhibition”.

In the case of `COC(=O)N[C@@H](C)CNc1nccc(-c2cn(C(C)C)nc2-c2cc(Cl)cc(NS(C)(=O)=O)c2F)n1` [LGX818, methyl (S)-(1-((4-(3-(5-chloro-2-fluoro-3-(methylsulfonamido)phenyl)-1-isopropyl-1H-pyrazol-4-yl)pyrimidin-2-yl)amino)propan-2-yl)carbamate], the “inhibition of PD-L1 on tumor cells” value in test [2] is listed as “Significant inhibition”. Besides, in test [3], the “PD-L1 mRNA” value is “Downregulation”.

`Cc1cc(C(=O)Nc2nc3cccc(Cl)c3n2[C@@H]2CCCCN(C(=O)/C=C/CN(C)C)C2)ccn1` [EGF816, (R,E)-N-(7-chloro-1-(1-(4-(dimethylamino)but-2-enoyl)azepan-3-yl)-1H-benzo[d]imidazol-2-yl)-2-methylisonicotinamide]: the “efficacy in EGFR mutant cancer models” value in test [4] is reported as “significant efficacy”. Moreover, the “WT EGFR inhibition” value on WT EGFR was “no indication of WT EGFR inhibition”.

For `CNC(=O)c1ccc(-c2cnc3ncc(Cc4ccc5ncccc5c4)n3n2)cc1F` [INC280, 2-fluoro-N-methyl-4-[7-(quinolin-6-ylmethyl)imidazo[1,2-b][1,2,4]triazin-2-yl]benzamide], the “inhibition of PD-L1 on tumor cells” value in test [2] is “Significant inhibition”. Moreover, the “surface expression of PD-L1” value in test [5] is “significant downregulation”. Moreover, the “PD-L1 expression (mRNA)” value in test [6] is given as “Inhibition”.

For `Cn1cnc2c(F)c(Nc3ccc(Br)cc3F)c(C(=O)NOCCO)cc21` [MEK162, 5-((4-bromo-2-fluorophenyl)amino)-4-fluoro-N-(2-hydroxyethoxy)-1-methyl-1H-benzo[d]imidazole-6-carboxamide], in test [2], the “inhibition of PD-L1 on tumor cells” value is “Significant inhibition”. Also, the “PD-L1 mRNA” value in test [7] is “Downregulation”.
